Results reported in patent US20110130704A1, “COMBINATION OF A LIGHT RAY AND A LIPASE-BIOCONVERTIBLE COMPOUND FOR IMPROVING SKIN AND/OR HAIR APPEARANCE” (L'OREAL, priority 2008, published 2011).

Legend:
[1] = system: lipase (reference L3126 from Sigma); experiment: Hydrolysis of ascorbyl palmitate by lipase with or without blue light radiation (palmitic acid released); type: biochemical; details: for Test - Control % of variation versus control: light 400-510 nm vs no light; for Test (in ppm palmitic acid released in reaction medium) / Control (in ppm palmitic acid released in reaction medium): lipase + ascorbyl palmitate; for Test (in ppm palmitic acid released in reaction medium): light 400-510 nm; for Control (in ppm palmitic acid released in reaction medium): no light exposure
Experimental: The lipase (reference L3126 from Sigma) is exposed with stirring to a light radiation with a predominant wavelength of 400-510 nm (FIG. 2: spectrum of blue light used, intensity 0.5 mW/cm^2) in the presence of ethyl lactate (from Sigma or Fluka) according to the set-up described in FIG. 1. The same protocol as that described in Example 1 is carried out, with the replacement of ethyl lactate by ascorbyl palmitate. In the presence of lipase, the ascorbyl palmitate hydrolyses to give palmitic acid and ascorbic acid. The lipase is exposed with stirring to the said radiation with a predominant wavelength ranging from 400 to 510 nm (blue spectrum) in the presence of ascorbyl palmitate. An increase in the hydrolysis proportional to the time of exposure of the lipase to the said radiation is found, as presented in the following table: […]

[2] = system: lipase (reference L3126 from Sigma); experiment: Hydrolysis of ethyl lactate by lipase with or without blue light radiation (lactic acid formed is determined); type: biochemical; details: for Test - Control % of variation versus control: light 400-510 nm vs no light; for Test (ppm lactic acid in reaction medium) / Control (ppm lactic acid in reaction medium): lipase + ethyl lactate; for Test (ppm lactic acid in reaction medium): light 400-510 nm; for Control (ppm lactic acid in reaction medium): no light exposure
Excerpt: In the presence of lipase, ethyl lactate is hydrolysed to give L-lactate (which reacts with water to give lactic acid) and ethanol. The lactic acid thus formed is quantitatively determined.
The lipase (reference L3126 from Sigma) is exposed with stirring to a light radiation with a predominant wavelength of 400-510 nm (FIG. 2: spectrum of blue light used, intensity 0.5 mW/cm^2) in the presence of ethyl lactate (from Sigma or Fluka) according to the set-up described in FIG. 1.
The control corresponds to bringing together the lipase and the ethyl lactate under the same conditions, without exposure to the said light radiation. An increase in the hydrolysis of the ethyl lactate, with respect to the control, is found.

CCCCCCCCCCCCCCCC(=O)OC[C@H](O)[C@H]1OC(=O)C(O)=C1O [ascorbyl palmitate]
Test - Control % of variation versus control ([1]; reaction time 20 min): 1.71%
Test - Control % of variation versus control ([1]; reaction time 40 min): 2.95%
Test - Control % of variation versus control ([1]; reaction time 60 min): 9.92%
Test - Control % of variation versus control ([1]; reaction time 90 min): 11.72%
Test (in ppm palmitic acid released in reaction medium) ([1]; reaction time 20 min): 63.96 ppm
Test (in ppm palmitic acid released in reaction medium) ([1]; reaction time 40 min): 77.15 ppm
Test (in ppm palmitic acid released in reaction medium) ([1]; reaction time 60 min): 98.99 ppm
Test (in ppm palmitic acid released in reaction medium) ([1]; reaction time 90 min): 119.51 ppm
Control (in ppm palmitic acid released in reaction medium) ([1]; reaction time 20 min): 62.89 ppm
Control (in ppm palmitic acid released in reaction medium) ([1]; reaction time 40 min): 74.87 ppm
Control (in ppm palmitic acid released in reaction medium) ([1]; reaction time 60 min): 89.16 ppm
Control (in ppm palmitic acid released in reaction medium) ([1]; reaction time 90 min): 105.5 ppm

CCOC(=O)C(C)O (stereo not drawn) [ethyl lactate]
Test - Control % of variation versus control ([2]; reaction time 20 min): 5.16%
Test - Control % of variation versus control ([2]; reaction time 40 min): 9.08%
Test - Control % of variation versus control ([2]; reaction time 90 min): 17.94%
Test (ppm lactic acid in reaction medium) ([2]; 0.5 mW/cm^2, reaction time 20 min): 0.48 ppm
Test (ppm lactic acid in reaction medium) ([2]; 0.5 mW/cm^2, reaction time 40 min): 0.69 ppm
Test (ppm lactic acid in reaction medium) ([2]; 0.5 mW/cm^2, reaction time 90 min): 0.84 ppm
Control (ppm lactic acid in reaction medium) ([2]; reaction time 20 min): 0.45 ppm
Control (ppm lactic acid in reaction medium) ([2]; reaction time 40 min): 0.62 ppm
Control (ppm lactic acid in reaction medium) ([2]; reaction time 90 min): 0.69 ppm
